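Cells were grown in 96-well plates and exposed to each compound for 48 hours at five concentrations; endpoints were interpolated linearly between bracketing concentrations, or set to the highest concentration if not reached. Definition used: TGI = concentration required for complete inhibition of growth.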
What was measured:
Assay in all cases: inhibition of tumour cell growth, NCI panel, 48 h
OVCAR-8 ovarian = system: OVCAR-8 ovarian
OVCAR-3 ovarian = system: OVCAR-3 ovarian
SK-MEL-28 melanoma = system: SK-MEL-28 melanoma
RPMI-8226 leukemia = system: RPMI-8226 leukemia
SNB-19 CNS = system: SNB-19 CNS
UO-31 renal = system: UO-31 renal
KM12 colon = system: KM12 colon
U251 CNS = system: U251 CNS
MDA-MB-231 breast = system: MDA-MB-231 breast
BT-549 breast = system: BT-549 breast
IGROV1 ovarian = system: IGROV1 ovarian
EKVX NSCLC = system: EKVX NSCLC
HT29 colon = system: HT29 colon
SW-620 colon = system: SW-620 colon
LOX IMVI melanoma = system: LOX IMVI melanoma

| Compound | TGI (OVCAR-8 ovarian) [µM] | TGI (OVCAR-3 ovarian) [µM] | TGI (SK-MEL-28 melanoma) [µM] | TGI (RPMI-8226 leukemia) [µM] | TGI (SNB-19 CNS) [µM] | TGI (UO-31 renal) [µM] | TGI (KM12 colon) [µM] | TGI (U251 CNS) [µM] | TGI (MDA-MB-231 breast) [µM] | TGI (BT-549 breast) [µM] | TGI (IGROV1 ovarian) [µM] | TGI (EKVX NSCLC) [µM] | TGI (HT29 colon) [µM] | TGI (SW-620 colon) [µM] | TGI (LOX IMVI melanoma) [µM] |
| --- | --- | --- | --- | --- | --- | --- | --- | --- | --- | --- | --- | --- | --- | --- | --- |
| CC1=NN(c2nc(N)nc(CCl)n2)C(C)(C)C1 | > 55.5 | > 51.8 | > 75.8 | > 100 | > 100 | 19.7 | 51.5 | > 63.3 | 85.7 | > 82.5 | 20.5 | 42.1 | > 92.7 | > 60.2 | 3.35 |
| COC(=O)/C=C1/OC(c2ccccc2)=C(Br)C1=O | > 100 | > 100 | > 100 | > 100 | > 100 | > 100 | > 100 | > 100 | 66.3 | 53.4 |  | > 100 | 50.6 | 36.7 | 43.3 |
| COc1ccc(-n2c(C)nc3ccc(NC4OCC(OC(C)=O)C(OC(C)=O)C4OC(C)=O)cc3c2=O)cc1 (configuration not stated) | > 100 | > 100 | > 100 | > 100 | > 100 | > 100 | > 100 | > 100 | > 100 | > 100 | > 100 | > 100 | > 100 | > 100 | > 100 |
| COC(=O)/C=C1\C(=O)Nc2ccc(Br)cc21 | 5.78 | 2.95 | 8.43 | 4.48 | 11.4 | 5.55 | 4.8 | 4.73 | 6.64 | 3.88 | 3.63 | 4.49 | 3.68 | 3.22 | 2.25 |
| CC(Oc1ccc(Cl)cc1Cl)C(=O)NN1C(=O)CC(=O)NC1=S (configuration not stated) | > 100 | > 100 | > 100 | > 100 | > 100 | > 100 | > 100 | > 100 | > 100 | > 100 | > 100 | > 100 | > 100 | > 100 | > 100 |
| Clc1nc(NC23CC4CC(CC(C4)C2)C3)nc(NC23CC4CC(CC(C4)C2)C3)n1 | > 100 | > 100 | > 100 | > 100 | > 100 | > 100 | > 100 | > 69 | > 76.3 | > 100 | > 100 | > 100 | > 100 | > 100 | > 100 |
| COc1ccc(/C=C2\CC3C4CC=C5C[C@@H](N6CCCC6)CC[C@]5(C)C4CC[C@]3(C)[C@H]2O)cc1OC (some centres not stated) | 23.8 | 16.8 | 20.1 | 22.1 | 19.1 | 18.5 | 14.2 | 15.8 | 15.1 | 16.5 | 21.4 | 16.9 | 15.3 | 50 | 18.8 |
| COc1ccc(-c2c(C#N)c(N)nc(Sc3ccccc3N)c2C#N)cc1 | 45.7 | > 100 | > 100 | > 100 | > 55.5 | > 100 | > 100 | 61 | 48.2 | > 100 | > 56.8 | > 100 | > 100 | > 100 | > 100 |
| COC(=O)c1ccc(C)cc1C1CN=NC12Cc1c(C)cccc1C2=O (configuration not stated) | > 92.4 | > 100 | > 100 | > 75.3 | > 100 | > 100 | > 84.8 | > 100 | > 100 | > 70.1 | 98 | > 100 | > 100 | > 100 | > 70.7 |
| CCSc1c2cc(OC)ccc2nc2ccc(OC)cc12 | > 59.2 | > 61.2 | > 59.2 | 22.2 | > 100 | > 60.7 | > 55.6 | > 79.2 | 44.6 | > 100 | > 55 | > 54 | 98 | > 100 | > 76.9 |
| CCc1n[nH]c(=O)n1N | > 100 | > 100 | > 100 | > 100 | > 100 | > 100 | > 100 | > 100 | > 100 | > 100 | > 100 | > 100 | > 100 | > 100 | > 100 |
| C1=C(c2ccccc2)NC2=N[C@H]3CCCC[C@@H]3N2C1c1ccccc1 (some centres not stated) | 27.4 | 25.8 | 27.4 | 49.8 | 27.7 | 24.8 | 22.9 | 26.1 | 30.2 | 24 | 26 | 29.3 | 14.8 | 26 | 29.6 |
| NC(=S)N/N=C1\CCc2ccccc2C1 | > 100 | > 100 | > 100 | > 100 | > 100 | > 100 | > 100 | > 100 | > 100 | > 100 | > 100 | > 100 | > 100 | > 100 | > 100 |
| CC(C)(C)C1CC[C@H](O)[C@H]([C@@H](O)CC2CC(=O)N(c3ccccc3)C(=O)C2)C1 (some centres not stated) | > 100 | > 100 | > 100 | > 100 | > 100 | > 100 | > 100 | > 100 | > 100 | > 100 | > 100 | > 100 | > 100 | > 100 | > 100 |
| Cc1ccccc1-n1c(=O)nc2n(-c3ccc(C(C)(C)C)cc3)c3ccccc3cc-2c1=O | 42.9 | 40.9 | 28.7 | 52.9 | 54.4 | 95.1 | 29.8 | 28.3 | 42.9 | 69.6 | 64.5 | 64.6 | 34.6 | 33.5 | 30.3 |
| COc1ccccc1NC(=S)Nc1ccccn1 | > 100 | > 100 | > 100 | > 100 | > 100 | > 100 | > 100 | > 100 | > 100 | > 100 | > 100 | > 100 | > 100 | > 100 | > 100 |
| CC1(c2cccc(C(F)(F)F)c2)CC(c2cccc(C(F)(F)F)c2)=C(C#N)C(=C(C#N)C#N)N1 (configuration not stated) | 40.2 | 24.6 | 33.9 | 47 | 40 | 33.4 | 32.9 | 35 | 40.7 | 40.9 | 30.6 | 34 | 36.2 | 52.1 | 34.1 |
| CCOP(=O)(OCC)/C(C#N)=C/c1cccn1C | > 100 | > 100 | > 100 | > 100 | > 100 | 99.5 | > 100 | > 100 | > 100 | > 100 | > 100 | > 100 | > 100 | > 100 | > 100 |
| C=C(Cl)C(Cl)(CBr)CCCC(C)C (configuration not stated) | 47.6 | 12.4 | 37.3 | > 27.3 | 47.4 | 39.2 | 24.2 | 21.9 | > 69.5 | > 100 | > 100 | 35 | 15.7 | > 84 | > 100 |
| CC(=O)O[C@H]1[C@@H](N2CCCCC2)C[C@H]2[C@@H]3CC=C4C[C@@H](N5CCCC5)CC[C@]4(C)[C@H]3CC[C@@]21C | > 100 | > 100 | 48.9 | 92.9 | > 100 | > 100 | > 100 | > 100 | > 100 | > 100 | > 100 | > 100 | > 100 | > 100 | > 100 |
| N=c1oc2ccccc2cc1C(=O)Nc1ccccn1 | > 100 | > 100 | > 100 | > 100 | > 100 |  | > 100 | > 100 | > 100 | > 100 | > 100 | > 100 | > 100 | > 100 | > 100 |
| CC1CCC2C(C(=O)O[C@H]3C4C=CO[C@@H](OC5OC(CO)C(O)C(O)C5O)C4[C@@]4(CO)O[C@@H]34)=CO[C@@H](OC3OC(CO)C(O)C(O)C3O)C12 (some centres not stated) | > 10 | > 10 | > 10 | > 10 | > 10 | > 10 | > 10 | > 10 | > 10 | > 10 | > 10 | > 10 | > 10 | > 10 | > 10 |
| CSc1cc(Cl)c(C(=O)Nc2ccccc2)cc1S(=O)(=O)n1cc[nH]c1=O | > 100 | > 100 | > 100 | > 100 | > 100 | > 100 | > 100 | > 100 | > 100 | > 100 | > 100 | > 100 | > 100 | > 100 | > 100 |
| O=C(N/N=C\c1ccc([N+](=O)[O-])cc1)Nc1ccc2ccccc2c1 | > 100 | > 100 | > 100 | > 100 | > 100 | > 100 | 67.3 | 45.8 | 63.8 | > 100 | > 100 | > 100 | 72.2 | 53.6 | > 100 |
| Cc1cc(NS(=O)(=O)c2ccc(NC(=O)c3ccc4nc5ccccc5c(Nc5ccc(S(N)(=O)=O)cc5)c4c3)cc2)no1 | 66 | 74.4 | 50.7 | 68 | > 100 | 43.4 | 59.1 | 64.7 | 67.1 | 67.5 | > 100 | 63 | 72.2 | 72.3 | 26.5 |
| ON[C@@H]1C=C[C@H](n2cnc3c(NC4CC4)ncnc32)C1 | > 100 | > 100 | > 100 | > 100 | > 100 | > 100 | > 100 | > 100 | > 100 | > 100 | > 100 | > 100 | > 100 | > 100 | > 100 |
| C#CCNC(CCCN=C(N)N)C(=O)O (configuration not stated) | > 100 | > 100 | > 100 | > 100 | > 100 | > 100 | > 100 | > 100 | > 100 | > 100 | > 100 | > 100 | > 100 | > 100 | > 100 |
| Cc1ccc2c(n1)C(=O)c1cc(C)c(C)cc1C2=O | > 100 | 67.3 | > 100 | > 100 | > 100 | > 100 | > 100 | > 100 | > 100 | > 100 | > 100 | > 100 | > 100 | > 100 | > 100 |
| c1ccc([P+](Cc2ccc(C[P+](c3ccccc3)(c3ccccc3)c3ccccc3)s2)(c2ccccc2)c2ccccc2)cc1 | > 100 | > 100 | > 100 | > 100 | > 100 | > 100 | > 100 | > 100 | > 100 | > 100 | > 100 | > 100 | > 100 | > 100 | > 100 |
| O=[N+]([O-])/C(C(Cl)=C(Cl)Cl)=C(\NCc1ccccc1)Sc1ccccc1 | 32.8 | 34.5 | 36.8 | > 100 | > 100 | 38.3 | 36.9 | > 100 | > 100 | 38.7 |  | > 100 | > 100 | 42.6 | 26.6 |

From PubChem BioAssay (NCI)
